{
  "source": "patent US8895733B2",
  "about": "(Novartis AG, priority 2010, dated 2014)",
  "data": [
    {"target": "T1, Nav 1.7 (Homo sapiens, UniProt Q15858)", "T1 construct": "expressed in transfected cells", "T1 sequence (Q15858 whole entry)": "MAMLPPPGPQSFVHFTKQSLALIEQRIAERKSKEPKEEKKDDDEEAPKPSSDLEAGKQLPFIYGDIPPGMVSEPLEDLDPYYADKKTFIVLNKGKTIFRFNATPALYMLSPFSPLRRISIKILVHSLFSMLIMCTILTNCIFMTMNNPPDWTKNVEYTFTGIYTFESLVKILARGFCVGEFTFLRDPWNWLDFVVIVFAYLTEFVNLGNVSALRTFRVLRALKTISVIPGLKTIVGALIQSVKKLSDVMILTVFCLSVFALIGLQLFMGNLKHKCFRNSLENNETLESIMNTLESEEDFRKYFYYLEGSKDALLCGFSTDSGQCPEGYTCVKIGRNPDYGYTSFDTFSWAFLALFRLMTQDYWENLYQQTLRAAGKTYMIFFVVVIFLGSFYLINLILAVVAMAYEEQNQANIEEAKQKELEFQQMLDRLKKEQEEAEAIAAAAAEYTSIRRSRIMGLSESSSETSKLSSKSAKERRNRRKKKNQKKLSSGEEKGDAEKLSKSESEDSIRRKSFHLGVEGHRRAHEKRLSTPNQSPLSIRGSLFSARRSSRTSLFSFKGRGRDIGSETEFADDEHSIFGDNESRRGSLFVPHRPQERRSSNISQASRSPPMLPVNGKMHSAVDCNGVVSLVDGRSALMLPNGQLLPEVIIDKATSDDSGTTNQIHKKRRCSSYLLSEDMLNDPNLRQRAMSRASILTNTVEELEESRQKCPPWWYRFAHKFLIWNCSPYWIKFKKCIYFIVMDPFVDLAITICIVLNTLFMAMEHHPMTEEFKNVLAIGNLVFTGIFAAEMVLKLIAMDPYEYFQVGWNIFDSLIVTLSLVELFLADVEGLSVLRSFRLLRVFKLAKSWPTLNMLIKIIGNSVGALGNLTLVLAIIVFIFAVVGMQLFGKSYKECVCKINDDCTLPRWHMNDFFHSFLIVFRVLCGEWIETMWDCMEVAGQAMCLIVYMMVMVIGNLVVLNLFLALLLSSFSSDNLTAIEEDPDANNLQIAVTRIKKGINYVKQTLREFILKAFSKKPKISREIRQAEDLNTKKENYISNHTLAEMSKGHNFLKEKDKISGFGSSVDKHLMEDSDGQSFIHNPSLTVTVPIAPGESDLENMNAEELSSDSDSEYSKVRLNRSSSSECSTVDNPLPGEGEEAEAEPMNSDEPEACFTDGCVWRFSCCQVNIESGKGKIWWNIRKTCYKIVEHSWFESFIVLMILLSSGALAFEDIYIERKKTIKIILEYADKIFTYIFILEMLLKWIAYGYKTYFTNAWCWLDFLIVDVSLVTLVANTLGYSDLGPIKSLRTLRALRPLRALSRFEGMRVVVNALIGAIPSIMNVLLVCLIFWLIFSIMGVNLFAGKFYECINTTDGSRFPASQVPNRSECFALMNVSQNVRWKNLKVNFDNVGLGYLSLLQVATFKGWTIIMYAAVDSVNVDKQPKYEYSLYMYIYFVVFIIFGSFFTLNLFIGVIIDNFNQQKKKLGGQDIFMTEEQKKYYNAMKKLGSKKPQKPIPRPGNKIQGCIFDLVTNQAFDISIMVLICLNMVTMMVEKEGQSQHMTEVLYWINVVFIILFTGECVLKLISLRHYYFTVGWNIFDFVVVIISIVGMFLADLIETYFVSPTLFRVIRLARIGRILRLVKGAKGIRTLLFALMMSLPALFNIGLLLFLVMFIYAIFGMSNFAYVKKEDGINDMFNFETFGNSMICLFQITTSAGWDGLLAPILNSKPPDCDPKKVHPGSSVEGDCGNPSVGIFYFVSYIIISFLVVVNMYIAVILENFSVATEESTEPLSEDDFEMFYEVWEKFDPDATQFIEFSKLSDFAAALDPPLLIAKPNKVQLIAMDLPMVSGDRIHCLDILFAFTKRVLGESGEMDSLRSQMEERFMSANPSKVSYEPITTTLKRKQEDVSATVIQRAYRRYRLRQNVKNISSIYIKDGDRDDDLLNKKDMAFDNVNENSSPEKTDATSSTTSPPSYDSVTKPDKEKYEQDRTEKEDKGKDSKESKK", "test": "Whole-cell voltage clamp electrophysiology, automated patch clamp (marker c in Table of Examples)", "format": "cell-based", "settings": "marker c = Automated patch clamp data; read-out: Nav 1.7 activity", "outline": "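Human NaV1.7 currents were recorded by whole-cell automated patch clamp, on IonWorks Quattro or another automated platform, typically in perforated-patch configuration. The stimulus protocol was designed to probe block mainly of the inactivated state, with a typical sweep stepping from about −65 mV holding to −10 mV, then −100 mV.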", "units": {"IC50": "nM"}, "values": [
      {"smiles": "CCCS(=O)(=O)N1CCC(c2nc(-c3nc(N)nc(N(C)c4ccccc4)n3)no2)C1", "note": "(centres unmarked) [Example 200, 2-N-methyl-2-N-phenyl-6-{5-[1-(propane-1-sulfonyl)pyrrolidin-3-yl]-1,2,4-oxadiazol-3-yl}-1,3,5-triazine-2,4-diamine]", "IC50": 8590},
      {"smiles": "CC(C)S(=O)(=O)N1CCC(c2nc(-c3nc(N)nc(N(C)c4ccccc4)n3)no2)C1", "note": "(centres unmarked) [Example 201, 2-N-methyl-2-N-phenyl-6-{5-[1-(propane-2-sulfonyl)pyrrolidin-3-yl]-1,2,4-oxadiazol-3-yl}-1,3,5-triazine-2,4-diamine]", "IC50": 3290},
      {"smiles": "CN(c1ccccc1)c1nc(N)nc(-c2noc(C3CCN(S(=O)(=O)CC(F)(F)F)C3)n2)n1", "note": "(centres unmarked) [Example 202, 2-N-methyl-2-N-phenyl-6-(5-{1-[(2,2,2-trifluoroethane)sulfonyl]pyrrolidin-3-yl}-1,2,4-oxadiazol-3-yl)-1,3,5-triazine-2,4-diamine]", "IC50": 1790},
      {"smiles": "CN(c1ccccc1)c1nc(N)nc(-c2noc(C3CCN(S(=O)(=O)c4ccccc4)C3)n2)n1", "note": "(centres unmarked) [Example 203, 6-{5-[1-(benzenesulfonyl)pyrrolidin-3-yl]-1,2,4-oxadiazol-3-yl}-2-N-methyl-2-N-phenyl-1,3,5-triazine-2,4-diamine]", "IC50": 4560},
      {"smiles": "CN(c1ccccc1)c1nc(N)nc(-c2noc(C3CCN(CCC(F)(F)F)C3)n2)n1", "note": "(centres unmarked) [Example 204, 2-N-methyl-2-N-phenyl-6-{5-[1-(3,3,3-trifluoropropyl)pyrrolidin-3-yl]-1,2,4-oxadiazol-3-yl}-1,3,5-triazine-2,4-diamine]", "IC50": "> 7830"},
      {"smiles": "CC(CC(F)(F)F)N1CCC(c2nc(-c3nc(N)nc(N(C)c4ccccc4)n3)no2)C1", "note": "(centres unmarked) [Example 205, 2-N-methyl-2-N-phenyl-6-{5-[1-(4,4,4-trifluorobutan-2-yl)pyrrolidin-3-yl]-1,2,4-oxadiazol-3-yl}-1,3,5-triazine-2,4-diamine]", "IC50": 1530},
      {"smiles": "CC(OCc1ccc(-c2nc(-c3nc(N)nc(N(C)c4ccccc4)n3)no2)cn1)C(F)(F)F", "note": "(centres unmarked) [Example 206, 2-N-methyl-2-N-phenyl-6-[5-(6-{[(1,1,1-trifluoropropan-2-yl)oxy]methyl}pyridin-3-yl)-1,2,4-oxadiazol-3-yl]-1,3,5-triazine-2,4-diamine]", "IC50": 17},
      {"smiles": "CN(c1ccccc1)c1nc(N)nc(-c2noc(-c3ccc(COCC4CC4)nc3)n2)n1", "note": "[Example 208, 6-(5-{6-[(cyclopropylmethoxy)methyl]pyridin-3-yl}-1,2,4-oxadiazol-3-yl)-2-N-methyl-2-N-phenyl-1,3,5-triazine-2,4-diamine]", "IC50": 113},
      {"smiles": "CC(OCC(F)(F)F)c1ccc(-c2nc(-c3nc(N)nc(N(C)c4ccccc4)n3)no2)cn1", "note": "(centres unmarked) [Example 209, 2-N-methyl-2-N-phenyl-6-(5-{6-[1-(2,2,2-trifluoroethoxy)ethyl]pyridin-3-yl}-1,2,4-oxadiazol-3-yl)-1,3,5-triazine-2,4-diamine]", "IC50": 74},
      {"smiles": "CC(OCc1ccc(-c2nc(-c3nc(N)nc(Nc4ccccc4)n3)no2)cn1)C(F)(F)F", "note": "(centres unmarked) [Example 210, 2-N-phenyl-6-[5-(6-{[(1,1,1-trifluoropropan-2-yl)oxy]methyl}pyridin-3-yl)-1,2,4-oxadiazol-3-yl]-1,3,5-triazine-2,4-diamine]", "IC50": 33},
      {"smiles": "Nc1nc(Nc2ccccc2)nc(-c2noc(-c3ccc(COCC4CC4)nc3)n2)n1", "note": "[Example 211, 6-(5-{6-[(cyclopropylmethoxy)methyl]pyridin-3-yl}-1,2,4-oxadiazol-3-yl)-2-N-phenyl-1,3,5-triazine-2,4-diamine]", "IC50": 44},
      {"smiles": "CC(OCC(F)(F)F)c1ccc(-c2nc(-c3nc(N)nc(Nc4ccccc4)n3)no2)cn1", "note": "(centres unmarked) [Example 212, 2-N-phenyl-6-(5-{6-[1-(2,2,2-trifluoroethoxy)ethyl]pyridin-3-yl}-1,2,4-oxadiazol-3-yl)-1,3,5-triazine-2,4-diamine]", "IC50": 211},
      {"smiles": "Nc1nc(Nc2ccccc2)nc(-c2noc(-c3ccc(COC4CCC4)nc3)n2)n1", "note": "[Example 213, 6-{5-[6-(cyclobutoxymethyl)pyridin-3-yl]-1,2,4-oxadiazol-3-yl}-2-N-phenyl-1,3,5-triazine-2,4-diamine]", "IC50": 67},
      {"smiles": "Nc1nc(Nc2ccccc2)nc(-c2noc(N3CCC(COCC4CC4)CC3)n2)n1", "note": "[Example 214, 6-(5-{4-[(cyclopropylmethoxy)methyl]piperidin-1-yl}-1,2,4-oxadiazol-3-yl)-2-N-phenyl-1,3,5-triazine-2,4-diamine]", "IC50": 233},
      {"smiles": "Nc1nc(Nc2ccccc2)nc(-c2noc(N3CCC(COC4CCC4)CC3)n2)n1", "note": "[Example 215, 6-{5-[4-(cyclobutoxymethyl)piperidin-1-yl]-1,2,4-oxadiazol-3-yl}-2-N-phenyl-1,3,5-triazine-2,4-diamine]", "IC50": 280},
      {"smiles": "CN(c1ccccc1)c1nc(N)nc(-c2noc(N3CCC(COC4CCC4)CC3)n2)n1", "note": "[Example 217, 6-{5-[4-(cyclobutoxymethyl)piperidin-1-yl]-1,2,4-oxadiazol-3-yl}-2-N-methyl-2-N-phenyl-1,3,5-triazine-2,4-diamine]", "IC50": 415},
      {"smiles": "Nc1nc(Nc2ccccc2)nc(-c2noc(C(=O)NC3CCCC3)n2)n1", "note": "[Example 218, 3-[4-amino-6-(phenylamino)-1,3,5-triazin-2-yl]-N-cyclopentyl-1,2,4-oxadiazole-5-carboxamide]", "IC50": 2510},
      {"smiles": "Nc1nc(Nc2cccc(F)c2)nc(-c2noc(C(=O)NC3CCCC3)n2)n1", "note": "[Example 219, 3-{4-amino-6-[(3-fluorophenyl)amino]-1,3,5-triazin-2-yl}-N-cyclopentyl-1,2,4-oxadiazole-5-carboxamide]", "IC50": 1960},
      {"smiles": "Nc1nc(Nc2ccccc2)nc(-c2noc(C(=O)N3CCCC3)n2)n1", "note": "[Example 220, 2-N-phenyl-6-{5-[(pyrrolidin-1 - yl)carbonyl]-1,2,4-oxadiazol-3-yl}-1,3,5-triazine-2,4-diamine]", "IC50": 833},
      {"smiles": "Nc1nc(Nc2ccccc2)nc(-c2noc(N3CCCCC3)n2)n1", "note": "[Example 221, 2-N-Phenyl-6-[5-(piperidin-1-yl)-1,2,4-oxadiazol-3-yl]-1,3,5-triazine-2,4-diamine]", "IC50": 729},
      {"smiles": "NC(=O)c1nc(-c2nc(N)nc(Nc3ccccc3)n2)no1", "note": "[Example 222, 3-[4-amino-6-(phenylamino)-1,3,5-triazin-2-yl]-1,2,4-oxadiazole-5-carboxamide]", "IC50": 7710},
      {"smiles": "NC(=O)c1nc(-c2nc(N)nc(Nc3cccc(F)c3)n2)no1", "note": "[Example 223, 3-{4-amino-6-[(3-fluorophenyl)amino]-1,3,5-triazin-2-yl}-1,2,4-oxadiazole-5-carboxamide]", "IC50": 6500},
      {"smiles": "Nc1nc(Nc2cccc(F)c2)nc(-c2noc(C(=O)NC3CCC3)n2)n1", "note": "[Example 224, 3-{4-amino-6-[(3-fluorophenyl)amino]-1,3,5-triazin-2-yl}-N-cyclobutyl-1,2,4-oxadiazole-5-carboxamide]", "IC50": 1520},
      {"smiles": "Nc1nc(Nc2cccc(F)c2)nc(-c2noc(C(=O)NC3Cc4ccccc4C3)n2)n1", "note": "[Example 225, 3-{4-amino-6-[(3-fluorophenyl)amino]-1,3,5-triazin-2-yl}-N-(2,3-dihydro-1H-inden-2-yl)-1,2,4-oxadiazole-5-carboxamide]", "IC50": 776},
      {"smiles": "Nc1nc(Nc2cccc(F)c2)nc(-c2noc(C(=O)NC3CCc4ccccc43)n2)n1", "note": "(centres unmarked) [Example 226, 3-{4-amino-6-[(3-fluorophenyl)amino]-1,3,5-triazin-2-yl}-N-(2,3-dihydro-1H-inden-1-yl)-1,2,4-oxadiazole-5-carboxamide]", "IC50": 3420},
      {"smiles": "Nc1nc(Nc2cccc(F)c2)nc(-c2noc(C(=O)N3CCCC3)n2)n1", "note": "[Example 227, 2-N-(3-fluorophenyl)-6-{5-[(pyrrolidin-1-yl)carbonyl]-1,2,4-oxadiazol-3-yl}-1,3,5-triazine-2,4-diamine]", "IC50": 241},
      {"smiles": "Nc1nc(Nc2ccccc2)nc(-c2noc(C(=O)NC3CCC3)n2)n1", "note": "[Example 228, 3-[4-amino-6-(phenylamino)-1,3,5-triazin-2-yl]-N-cyclobutyl-1,2,4-oxadiazole-5-carboxamide]", "IC50": 401},
      {"smiles": "Nc1nc(Nc2ccccc2)nc(-c2noc(C(=O)NC3Cc4ccccc4C3)n2)n1", "note": "[Example 229, 3-[4-amino-6-(phenylamino)-1,3,5-triazin-2-yl]-N-(2,3-dihydro-1H-inden-2-yl)-1,2,4-oxadiazole-5-carboxamide]", "IC50": 9190},
      {"smiles": "Nc1nc(Nc2ccccc2)nc(-c2noc(C(=O)N3Cc4ccccc4C3)n2)n1", "note": "[Example 230, 6-{5-[(2,3-dihydro-1H-isoindol-2-yl)carbonyl]-1,2,4-oxadiazol-3-yl}-2-N-phenyl-1,3,5-triazine-2,4-diamine]", "IC50": 9250},
      {"smiles": "Nc1nc(Nc2ccccc2)nc(-c2noc(NC3CCCC3)n2)n1", "note": "[Example 231, 6-[5-(cyclopentylamino)-1,2,4-oxadiazol-3-yl]-2-N-phenyl-1,3,5-triazine-2,4-diamine]", "IC50": 3210},
      {"smiles": "Nc1nc(Nc2cccc(F)c2)nc(-c2noc(C(=O)N3CCOCC3)n2)n1", "note": "[Example 232, 2-N-(3-fluorophenyl)-6-{5-[(morpholin-4-yl)carbonyl]-1,2,4-oxadiazol-3-yl}-1,3,5-triazine-2,4-diamine]", "IC50": 9330},
      {"smiles": "Nc1nc(Nc2cccc(F)c2)nc(-c2noc(C(=O)N[C@@H]3CCOC3)n2)n1", "note": "[Example 233, 3-{4-amino-6-[(3-fluorophenyl)amino]-1,3,5-triazin-2-yl}-N-[(3R)-oxolan-3-yl]-1,2,4-oxadiazole-5-carboxamide]", "IC50": 5660},
      {"smiles": "CC(C)NC(=O)c1nc(-c2nc(N)nc(Nc3cccc(F)c3)n2)no1", "note": "[Example 234, 3-{4-amino-6-[(3-fluorophenyl)amino]-1,3,5-triazin-2-yl}-N-(propan-2-yl)-1,2,4-oxadiazole-5-carboxamide]", "IC50": 1270},
      {"smiles": "Nc1nc(Nc2cccc(F)c2)nc(-c2noc(NC3CCCC3)n2)n1", "note": "[Example 235, 6-[5-(cyclopentylamino)-1,2,4-oxadiazol-3-yl]-2-N-(3-fluorophenyl)-1,3,5-triazine-2,4-diamine]", "IC50": 1690},
      {"smiles": "Nc1nc(Nc2cccc(F)c2)nc(-c2noc(N3CCCCC3)n2)n1", "note": "[Example 236, 2-N-(3-fluorophenyl)-6-[5-(piperidin-1-yl)-1,2,4-oxadiazol-3-yl]-1,3,5-triazine-2,4-diamine]", "IC50": 406}
    ]}
  ]
}
